Drawing on ChEMBL document CHEMBL1148658, “New HIV-1 reverse transcriptase inhibitors based on a tricyclic benzothiophene scaffold: synthesis, resolution, and inhibitory activity” (Bioorg Med Chem Lett, 2006), this text covers IC50 for 19 molecules.

pIC50: −log10 of the molar value. Some results are limits rather than exact numbers.

The first assay addresses Human immunodeficiency virus type 1 reverse transcriptase (Human immunodeficiency virus 1, UniProt Q72547, Y188C). In words: Inhibition of HIV1 reverse transcriptase Y188C mutant in 293T cells. The assay is classed as cell-based.
Broadly, the pIC50 is the negative decadic logarithm of the IC50, by convention in mol/L. A higher pIC50 goes with a small IC50. `COC(=O)C1=C(N2CCCC2)C2c3ccccc3SC12C(=O)OC` (configuration not stated) had a negative-log IC50 (pIC50) of less than 4.52.

A further assay has as its target Human immunodeficiency virus type 1 reverse transcriptase (Human immunodeficiency virus 1, UniProt Q72547, Y181C). In words: Inhibition of HIV1 reverse transcriptase Y181C mutant in 293T cells. The assay is classed as cell-based.
`COC(=O)C1=C(N2CCCC2)C2c3ccccc3SC12C(=O)OC` (configuration not stated) had a pIC50 of less than 4.52.

The target in another assay is Human immunodeficiency virus type 1 reverse transcriptase (Human immunodeficiency virus 1, UniProt Q72547). The assay is described as follows: Inhibition of wild type HIV1 reverse transcriptase in 293T cells. The assay is classed as cell-based.
On to `COC(=O)C1=C(N2CCC2)C2c3ccccc3SC12C(=O)OC` (configuration not stated), for which the pIC50 was less than 5.00.

On to `COC(=O)C1=C(N2CCCCC2)C2c3ccccc3SC12C(=O)OC` (configuration not stated), for which the pIC50 was 5.05.

Take `CCOC(=O)C1=C(N2CCCC2)[C@H]2c3ccccc3S[C@@]12C(=O)OCC`: the pIC50 was less than 4.70.

`COC(=O)C1=C(N2CCCC2)C2c3ccccc3SC12C(=O)OC` (configuration not stated) had a pIC50 of 5.92.

Take `COC[C@H]1CCCN1C1=C(C(=O)OC)[C@]2(C(=O)OC)Sc3ccccc3[C@H]12`: the pIC50 was 4.42.

Consider `COC(=O)C1=C(N2CCC[C@@H]2C)[C@H]2c3ccccc3S[C@@]12C(=O)OC`, for which the pIC50 was 5.64.

`COC(=O)C1=C(N2CCCC2)[C@H]2c3ccccc3S[C@@]12C(=O)OC` showed a pIC50 of 6.10.

Regarding `COC(=O)C1=C(N2CCC[C@H]2C)[C@H]2c3ccccc3S[C@@]12C(=O)OC`, the pIC50 is 6.30.

Molecule `CCOC(=O)C1=C(N2CCCC2)[C@@H]2c3ccccc3S[C@]12C(=O)OCC` gave a negative-log IC50 (pIC50) of less than 4.70.

As for `COC(=O)C1=C(N2CCC[C@@H]2C)[C@@H]2c3ccccc3S[C@]12C(=O)OC`, the pIC50 is less than 4.60.

Molecule `CCOC(=O)C1=C(N2CCCC2)C2c3ccccc3SC12C(=O)OCC` (configuration not stated) had a pIC50 of less than 4.70.

For `COC(=O)C1=C(N2CCCCC2)[C@@H]2c3ccccc3S[C@]12C(=O)OC`, the negative-log IC50 (pIC50) was less than 4.40.

`COC[C@H]1CCCN1C1=C(C(=O)OC)[C@@]2(C(=O)OC)Sc3ccccc3[C@@H]12`: the negative logarithm of the IC50 (pIC50) was less than 4.30.

The molecule `COC(=O)C1=C(N2CCCCC2)[C@H]2c3ccccc3S[C@@]12C(=O)OC` gave a pIC50 of 5.11.

`COC(=O)C1=C(N2CCC[C@H]2C)[C@@H]2c3ccccc3S[C@]12C(=O)OC`: the negative logarithm of the IC50 (pIC50) is 4.96.

Regarding `COC(=O)C1=C(N2CCCC2)[C@@H]2c3ccccc3S[C@]12C(=O)OC`, the pIC50 was less than 4.70.

As for `COC(=O)C1=C(N2CC=CC2)C2c3ccccc3SC12C(=O)OC` (configuration not stated), the pIC50 was 5.29.

In the case of `CC(C)(C)OC(=O)C1=C(N2CCCC2)C2c3ccccc3SC12C(=O)OC(C)(C)C` (configuration not stated), the pIC50 is less than 4.70.

In turn, `COC[C@H]1CCCN1C1=C(C(=O)OC)C2(C(=O)OC)Sc3ccccc3C12` (some centres not stated) had a pIC50 of 4.32.

For another assay, the target named is Human immunodeficiency virus type 1 reverse transcriptase (Human immunodeficiency virus 1, UniProt Q72547, K103N). In words: Inhibition of HIV1 reverse transcriptase K103N mutant in 293T cells. It is filed as cell-based.
As to `COC(=O)C1=C(N2CCCC2)C2c3ccccc3SC12C(=O)OC` (configuration not stated), the pIC50 was less than 4.52.
